The results in this text go back to US6160004A, “C-10 carbon-substituted artemisinin-like trioxane compounds having antimalarial, antiproliferative and antitumor activities” (priority 1998, dated 2000).

The structures appear in SMILES notation. Like-named read-outs stand apart in the source and are kept apart here. A value given as a limit tells only on which side of the number the result lay.

One experiment concerns HL-60(TB). The experiment is described as follows: cells. The class given is cell-based. To be noted: Homo sapiens, HL-60, 48 h.
The subject of a further experiment is SR. The experiment is described as follows: cells. The class given is cell-based. The following applies: Homo sapiens, 48 h; for GI50: read-out: Log10 GI50 (converted); for CC50: read-out: Log10 LC50 (converted).
The subject of another experiment is A549/ATCC. As to the kind of experiment: NCI 60 cell line panel screening assay (SRB), A549/ATCC. To be noted: Homo sapiens, non-small cell lung cancer, 48 h, read-out: Log10 GI50 (converted). The class given is cell-based.
A further experiment relates to NCI-H522. The experiment is described as follows: cells. The class given is cell-based. To be noted: Homo sapiens, NCI-H522, 48 h.
In another experiment the test system is HCT-15. As to the kind of experiment: cells. The class given is cell-based. The following applies: Homo sapiens, HCT-15, colon cancer, 48 h.
Another experiment deals with SNB-19. The experiment is described as follows: cells. The following applies: Homo sapiens, SNB-19, CNS cancer, 48 h. The class given is cell-based.
The subject of a further experiment is LOX IMVI. As to the kind of experiment: cells. The class given is cell-based. To be noted: Homo sapiens, 48 h, read-out: Log10 GI50 (converted).
In the next experiment the test system is OVCAR-3. As to the kind of experiment: cells. The class given is cell-based. The following applies: Homo sapiens; OVCAR-3, ovarian cancer, 48 h; read-out: Log10 LC50 (converted).
The test system of a further experiment is OVCAR-4. As to the kind of experiment: cells. The class given is cell-based. The following applies: Homo sapiens.
The subject of the next experiment is SK-OV-3. As to the kind of experiment: cells. The class given is cell-based. The following applies: Homo sapiens; SK-OV-3, ovarian cancer, 48 h; read-out: Log10 TGI (converted).
A further experiment has as its system CAKI-1. As to the kind of experiment: NCI 60 cell line panel screening assay (SRB), CAKI-1. The class given is cell-based. To be noted: Homo sapiens; CAKI-1, renal cancer, 48 h; read-out: Log10 GI50 (converted).
The test system of another experiment is UO-31. The experiment is described as follows: NCI 60 cell line panel screening assay (SRB), UO-31. The class given is cell-based. To be noted: Homo sapiens, UO-31, renal cancer, 48 h.
The next experiment relates to PC-3. As to the kind of experiment: cells. To be noted: Homo sapiens, PC-3, prostate cancer, 48 h. The class given is cell-based.
The subject of a further experiment is MCF7. The experiment is described as follows: cells. The class given is cell-based. The following applies: Homo sapiens; for GI50: read-out: Log10 GI50 (converted).
The test system of a further experiment is HS 578T. As to the kind of experiment: cells. The class given is cell-based. The following applies: Homo sapiens, 48 h, read-out: Log10 GI50 (converted).
Another experiment relates to BT-549. The experiment is described as follows: cells. The following applies: Homo sapiens; BT-549, breast cancer, 48 h; read-out: Log10 LC50 (converted). The class given is cell-based.
Experiment [1] deals with chloroquine-sensitive P. falciparum (NF54). The experiment is described as follows: In vitro antimalarial activity ([3H]hypoxanthine incorporation). To be noted: Plasmodium falciparum; chloroquine-sensitive P. falciparum NF54, in vitro. The class given is cell-based.
In a further experiment the test system is T-47D. As to the kind of experiment: NCI 60 cell line panel screening assay (SRB), T-47D. To be noted: Homo sapiens, T47D, 48 h.
For the next experiment, the system named is EKVX. As to the kind of experiment: NCI 60 cell line panel screening assay (SRB), EKVX. The following applies: Homo sapiens, non-small cell lung cancer, 48 h, read-out: Log10 GI50 (converted). The class given is cell-based.
In another experiment the test system is NCI-H460. The experiment is described as follows: cells. To be noted: Homo sapiens, NCI-H460, non-small cell lung cancer, 48 h. The class given is cell-based.
In the next experiment the test system is ACHN. The experiment is described as follows: NCI 60 cell line panel screening assay (SRB), ACHN. The class given is cell-based. The following applies: Homo sapiens, renal cancer, 48 h, read-out: Log10 GI50 (converted).
In a further experiment the test system is MDA-N. As to the kind of experiment: NCI 60 cell line panel screening assay (SRB), MDA-N. The following applies: Homo sapiens, breast cancer, 48 h, read-out: Log10 GI50 (converted). The class given is cell-based.
A further experiment concerns M14. The experiment is described as follows: NCI 60 cell line panel screening assay (SRB), M14. To be noted: Homo sapiens, M14, 48 h, read-out: Log10 LC50 (converted).
[2] abbreviates: read-out: Log10 GI50 (converted).
[3] abbreviates: read-out: Log10 LC50 (converted).

As to `CC1CCC2C(C)C(CC(=O)c3ccc(C(=O)CC4OC5OC6(C)CCC7C(C)CCC(C4C)C57OO6)cc3)OC3OC4(C)CCC1C32OO4` (centres unmarked) [Dimer 38], the 50% growth inhibitory concentration (GI50) with HL-60(TB) (setting [2]) was below 0.01 µM; in the experiment with SR, below 0.01 µM; in the experiment with A549/ATCC, below 0.01 µM; with NCI-H522 (setting [2]), below 0.01 µM; in the experiment on LOX IMVI it was below 0.01 µM; in the experiment with CAKI-1 it was 0.0112 µM. Moreover, the GI50 in the experiment on UO-31 (setting [2]) is 0.024 µM; in the experiment with PC-3 (setting [2]), below 0.01 µM; in the experiment with MCF7 (MCF7, 48 h) it was below 0.01 µM; with HS 578T (Hs-578T), below 0.01 µM; in the experiment on T-47D (setting [2]) it was below 0.01 µM. The CC50 in the experiment on HL-60(TB) (setting [3]), with SR (leukemia), in the experiment with NCI-H522 (setting [3]), in the experiment with HCT-15 (setting [3]), with SNB-19 (setting [3]) and in the experiment with OVCAR-3 was above 100 µM in each case. The CC50 with OVCAR-4 (OVCAR-4, ovarian cancer, 48 h, read-out: Log10 LC50 (converted)) was above 100 µM; in the experiment on UO-31 (setting [3]), above 100 µM; in the experiment with BT-549, above 100 µM; in the experiment with T-47D (setting [3]) it was above 100 µM. Besides, the IC (TGI) in the experiment with OVCAR-4 (OVCAR-4, 48 h, read-out: Log10 TGI) is above 100 µM; in the experiment on SK-OV-3, 21.4 µM. Besides, inhibition in experiment [1] was half-maximal at 0.0019 µM (IC50).
Regarding `C[C@@H]1CC[C@H]2[C@@H](C)C(=O)O[C@@H]3O[C@@]4(C)CC[C@@H]1[C@]32OO4` [Artemisinin], the CC50 with SR and in the experiment with M14 was above 100 µM throughout. The 50% growth inhibitory concentration (GI50) in the experiment on SR (leukemia), in the experiment on EKVX, in the experiment on NCI-H460 (setting [2]), in the experiment with HCT-15 (setting [2]), in the experiment on SNB-19 (setting [2]) and with ACHN was above 100 µM each time. Moreover, the 50% growth inhibitory concentration (GI50) in the experiment on MCF7 (MCF7, breast cancer, 48 h) was above 100 µM; with HS 578T (HS 578T, breast cancer), above 100 µM; in the experiment on MDA-N, above 100 µM. For the same compound, the IC (TGI) in the experiment on NCI-H460 (read-out: Log10 TGI (converted)) was above 100 µM; in the experiment with HCT-15 (read-out: Log10 TGI), above 100 µM; in the experiment on SNB-19 (read-out: Log10 TGI) it was above 100 µM; with PC-3 (read-out: Log10 TGI), above 100 µM; in the experiment with MCF7 (MCF7, breast cancer, 48 h, read-out: Log10 TGI), above 100 µM; in the experiment with T-47D (read-out: Log10 TGI), above 100 µM.

In general, GI50 refers to the concentration at which growth is held to half of that of the control. By IC50 is commonly meant the concentration that inhibits the measured activity by half. Low values mean higher potency, high ones lower potency.
